These results are taken from ChEMBL document CHEMBL3507680, “University of Dundee, Gates Library screen for HepG2 cell viability”.

The data set in a line: Human HepG2 cell viability assay in 384 well format. In kind it is toxicity, cell-based. More on the design: dose 125 nL, time 70.5 hour; concentration not given beside the values. As to conditions: HepG2 cells, read-out: Inhibition.

With `Cc1ccc(C(=O)N2CCCC(n3cccn3)C2)cc1S(C)(=O)=O` (stereo not given), the cytotoxicity at 70.5 h is 0.0611%.
For `Cc1ccc2oc(C(=O)N3CCCC(n4cccn4)C3)cc2n1` (stereo not given), the cytotoxicity at 70.5 h was found to be 21.1%.
With `Cc1cnn(C2CCCN(C(=O)c3cc4nc(C)ccc4o3)C2)c1` (stereo not given), the cytotoxicity at 70.5 h is -5.06%.
With `c1ccc(-c2nc(CNC3CCc4ncnn4C3)cs2)cc1` (stereo not given), the cytotoxicity at 70.5 h turned out to be 0.00764%.
For the molecule `Cc1nnc2n1CCN(C(C(=O)NC(C)C)c1ccccc1)C2` (stereo not given), the cytotoxicity at 70.5 h came out at 19.5%.
With `CCNc1cc2c(nn1)CCN(C(=O)Cc1ccc(C)nc1)C2`, the cytotoxicity at 70.5 h is -6.5%.
`COCc1nc(C(=O)NS(=O)(=O)c2c(C)c(C)cc(C)c2C)cs1`: the cytotoxicity at 70.5 h was determined as 2.47%.
Take `Cc1ccc2oc(C(=O)N3CCCC(n4ccnc4C)C3)cc2n1` (stereo not given): the cytotoxicity at 70.5 h was 0.879%.
The result for `O=C(CCCOc1ccccc1)N1CCCC(n2cncn2)C1` (stereo not given) reads 2.63%.
Regarding `N#Cc1ccc(CS(=O)(=O)NC(=O)COc2ccc3c(c2)CCC3)cc1`, the cytotoxicity at 70.5 h is -5.23%.
As to `COCc1nc(C(=O)NS(=O)(=O)c2ccc(F)cc2F)cs1`, the cytotoxicity at 70.5 h came out at 0.492%.
For the molecule `Cn1cc(-c2nc(CN3CCc4c(ncn4C)C3)cs2)cn1`, the cytotoxicity at 70.5 h came to 31%.
Turning to `CCN(CC1CCOC1)C(=O)Nc1ccc(N2CCOCC2)nc1` (stereo not given), the cytotoxicity at 70.5 h was 18.9%.
Turning to `O=C(c1cc(C2CC2)on1)N1CCCC(n2cccn2)C1` (stereo not given), the cytotoxicity at 70.5 h turned out to be 23.8%.
As for `Cn1cnc2c1CCN(Cc1csc(-c3ccccc3)n1)C2`, the cytotoxicity at 70.5 h turned out to be 24.1%.
Consider `NC(=O)C1CCN(C(=O)c2ccc(OCc3cscn3)cc2)CC1`, for which the cytotoxicity at 70.5 h came out at 55.1%.
The result for `O=C(c1cccc(OCc2cscn2)c1)N1CCOCC1` reads 0.0866%; that for `CC(=O)N1CCC(NC(=O)N(C)Cc2c(C)noc2C)CC1`, -8.21%; that for `O=C(NCCn1ccnc1)N1CCCC1c1ccncc1` (stereo not given), 1.26%.
Take `Cc1noc(C2CCCN(C(=O)CCNc3ncccn3)C2)n1` (stereo not given): the cytotoxicity at 70.5 h is -13.2%.
In the case of `Cc1cnn(CC(=O)NCC2CCN(c3cc(Cl)ccc3C)C2)c1` (stereo not given) it was 6.3%; in that of `CC(C)n1ccnc1CN1CCCN(C(=O)c2ncccc2O)CC1`, 0.148%.
In the case of `Cc1cc(C2CCCN2Cc2cc(=O)n(C)c(=O)n2C)no1` (stereo not given) it was 18.5%; in that of `Cn1cnc2c1CCN(Cc1csc(-c3ccc(F)cc3)n1)C2`, -3.43%.
The result for `c1ncn(CC2CCCN(Cc3cn4ccsc4n3)C2)n1` (stereo not given) reads -5.75%; that for `Cn1cc(CN2CCCN(C(=O)c3ccccn3)CC2)cn1`, -1.29%; that for `CC(C(=O)NC1CC1)N1CCN(Cc2ccn(C)c(=O)c2)CC1` (stereo not given), 0.0611%.
Regarding `O=C(NCC1CCOC1)Nc1ccc(Oc2cccc(F)c2)nc1` (stereo not given), the cytotoxicity at 70.5 h was -10.7%.
The result for `CN1CC(C(=O)NCc2ccnc(-n3cccn3)c2)CC1=O` (stereo not given) reads -22.4%.
Regarding `CN(C)c1ccc(C(=O)N2CCN(c3cnccn3)CC2)cn1`, the cytotoxicity at 70.5 h was -17.1%.
The result for `CCC1c2ccsc2CCN1C(=O)NCc1ccnc(N(C)C)c1` (stereo not given) reads -9.44%; that for `CN(C)c1cc(C(=O)N2CCN(c3nccs3)CC2)ccn1`, -13.8%.
`CCC1c2ccsc2CCN1C(=O)NCc1cccnc1OC` (stereo not given): the cytotoxicity at 70.5 h was -11.2%.
For the molecule `COc1cccc(-n2nnc(C(=O)N3CCCC(C)C3)c2C)c1` (stereo not given), the cytotoxicity at 70.5 h was -10.2%.
In the case of `O=C(Nc1nccs1)NC1CCN(Cc2ccccc2)CC1`, the cytotoxicity at 70.5 h was -15.7%.
`CN(C)c1cc(C(=O)N2CCN(c3cc(C#N)ccn3)CC2)ccn1`: the cytotoxicity at 70.5 h is -16.5%.
In the case of `CCN1CC(C(=O)NCc2ccnc(-n3cccn3)c2)CC1=O` (stereo not given) it was -4.01%; in that of `O=C(c1ccc2c(c1)CCCC2)N1CCN(c2cnccn2)CC1`, -11.8%; in that of `CC(Nc1cccc(CN2CCOC2=O)c1)C(=O)Nc1cccc(F)c1` (stereo not given), -0.899%.
The result for `COc1ccccc1N1CCN(C(=O)c2ccnc(N(C)C)c2)CC1` reads 36.2%.
